Patent US20240132513A1, “BENZAZEPINE DERIVATIVES, COMPOSITIONS, AND METHODS FOR TREATING COGNITIVE IMPAIRMENT” (AGENEBIO, INC., priority 2022, published 2024)
Where two headings read alike, the source gives them in different places.

Key:
GABAA α5 receptor = molecular target: T1, GABAA α5 receptor (Rattus norvegicus, UniProt P19969); assay: GABAA α5 receptor occupancy with Ro 15-4513 tracer; assay type: in vivo, Long Evans rats; details: i.v.; for Ro 15-4513 binding in hippocampus / Ro 15-4513 levels/binding in cerebellum: 0.01-10 mg/kg
T1 construct: from tissue; host or cells: rat brain in vivo; hippocampus versus cerebellum
Source text: Food and water were available ad libitum.

aged-impaired (AI) rats = assay: Radial Arm Maze (RAM) behavioral task, spatial memory retention; assay type: in vivo, rat; details: four-hour delay
Procedure: […] RAM behavioral tasks were performed on eight AI rats. All five treatment conditions (vehicle and four dosage levels) were tested on all eight rats.
The RAM apparatus used consisted of eight equidistantly-spaced arms. An elevated maze arm (7 cm width×75 cm length) projected from each facet of an octagonal center platform (30 cm diameter, 51.5 cm height). Clear side walls on the arms were 10 cm high and were angled at […] to form a trough. A food well (4 cm diameter, 2 cm deep) was located at the distal end of each arm. Froot Loops™ (Kellogg Company) were used as rewards. Blocks constructed of Plexiglas™ (30 cm height×12 cm width) could be positioned to prevent entry to any arm. Numerous extra maze cues surrounding the apparatus were also provided.
The AI rats were initially subjected to a pre-training test (Chappell et al. Neuropharmacology 37: 481-487, 1998). The pre-training test consisted of a habituation phase (4 days), a training phase on the standard win-shift task (18 days) and another training phase (14 days) in which a brief delay was imposed between presentation of a subset of arms designated by the experimenter (e.g., 5 arms available and 3 arms blocked) and completion of the eight-arm win-shift task (i.e., with all eight arms available).
In the habituation phase, rats were familiarized to the maze for an 8-minute session on four consecutive days. In each of these sessions, food rewards were scattered on the RAM, initially on the center platform and arms and then progressively confined to the arms. After this habituation phase, a standard training protocol was used, in which a food pellet was located at the end of each arm. Rats received one trial each day for 18 days. Each daily trial terminated when all eight food pellets had been obtained or when either 16 choices were made, or 15 minutes had elapsed. After completion of this training phase, a second training phase was carried out in which the memory demand was increased by imposing a brief delay during the trial. At the beginning of each trial, three arms of the eight-arm maze were blocked. Rats were allowed to obtain food on the five arms to which access was permitted during this initial “information phase” of the trial. Rats were then removed from the maze for 60 seconds, during which time the barriers on the maze were removed, thus allowing access to all eight arms. Rats were then placed back onto the center platform and allowed to obtain the remaining food rewards during this “retention test” phase of the trial. The identity and configuration of the blocked arms varied across trials.
The number of “errors” the AI rats made during the retention test phase was tracked. […]

GABAA R (α5β2γ2) = molecular target: T2, GABAA R (α5β2γ2) (Homo sapiens, UniProt P18507+P31644); assay: Positive allosteric modulator activity: potentiation of EC20 GABA current in oocytes; assay type: cell-based
T2 construct: expressed in transfected cells
In short: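 Xenopus oocytes injected with 1 ng α5:β2:γ2 cDNA (1:1:10 by weight), tested day 2, voltage-clamped at −60 mV under MBS superfusion.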

α5β3γ2 GABAA R = α5β3γ2 GABAA R (Homo sapiens, UniProt P18507+P31644); assay: Binding activity on GABAA R: inhibition of [3H]Ro15-1788 binding, α5 containing receptor
In short: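 Membranes from dexamethasone-induced (0.5 μM, 1 day) Ltk cells stably expressing α5β3γ2 receptors, 0.2 mg/ml protein, incubated with [3H]Ro15-1788 for 1 h at 4 °C in 50 mM KH2PO4/1 mM EDTA/0.2 M KCl, pH 7.4. Nonspecific binding with 10 μM diazepam; bound ligand by GF/B filtration and scintillation counting, triplicates.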

[1] = read-out: GABA α5 Functional Data: potentiation, @ 100 nM, EC20 GABA, ranges of the column heads
[2] = read-out: GABA α5 Functional Data: potentiation
[3] = ranges of the column heads, [3H]Ro15-1788, Ltk cell membranes

T1 sequence (P19969 32-464 limits assumed): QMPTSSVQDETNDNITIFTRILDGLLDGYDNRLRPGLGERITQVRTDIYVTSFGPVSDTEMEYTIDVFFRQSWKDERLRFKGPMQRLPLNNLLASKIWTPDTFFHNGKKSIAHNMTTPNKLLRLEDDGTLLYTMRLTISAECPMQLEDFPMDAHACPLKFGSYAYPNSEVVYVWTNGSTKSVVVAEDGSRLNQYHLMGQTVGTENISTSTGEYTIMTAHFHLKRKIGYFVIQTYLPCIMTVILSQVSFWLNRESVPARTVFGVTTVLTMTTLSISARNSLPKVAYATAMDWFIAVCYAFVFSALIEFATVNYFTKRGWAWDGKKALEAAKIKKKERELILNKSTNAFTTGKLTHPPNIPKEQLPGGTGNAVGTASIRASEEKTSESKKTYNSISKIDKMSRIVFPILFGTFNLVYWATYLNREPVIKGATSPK
Sequence of α5β3γ2 GABAA R (P31644 32-462): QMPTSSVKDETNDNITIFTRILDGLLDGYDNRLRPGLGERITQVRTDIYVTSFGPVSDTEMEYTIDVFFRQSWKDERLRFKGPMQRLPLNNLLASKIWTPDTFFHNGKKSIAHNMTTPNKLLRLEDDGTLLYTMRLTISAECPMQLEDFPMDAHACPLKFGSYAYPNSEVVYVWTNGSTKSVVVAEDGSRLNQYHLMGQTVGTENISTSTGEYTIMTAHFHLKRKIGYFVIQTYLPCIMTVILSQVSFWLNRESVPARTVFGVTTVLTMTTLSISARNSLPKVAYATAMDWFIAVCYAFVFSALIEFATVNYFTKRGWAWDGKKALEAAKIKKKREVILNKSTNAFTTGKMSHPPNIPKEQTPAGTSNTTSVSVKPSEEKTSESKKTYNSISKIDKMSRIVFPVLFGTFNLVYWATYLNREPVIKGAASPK
Sequence of α5β3γ2 GABAA R (P28472 26-473 partner): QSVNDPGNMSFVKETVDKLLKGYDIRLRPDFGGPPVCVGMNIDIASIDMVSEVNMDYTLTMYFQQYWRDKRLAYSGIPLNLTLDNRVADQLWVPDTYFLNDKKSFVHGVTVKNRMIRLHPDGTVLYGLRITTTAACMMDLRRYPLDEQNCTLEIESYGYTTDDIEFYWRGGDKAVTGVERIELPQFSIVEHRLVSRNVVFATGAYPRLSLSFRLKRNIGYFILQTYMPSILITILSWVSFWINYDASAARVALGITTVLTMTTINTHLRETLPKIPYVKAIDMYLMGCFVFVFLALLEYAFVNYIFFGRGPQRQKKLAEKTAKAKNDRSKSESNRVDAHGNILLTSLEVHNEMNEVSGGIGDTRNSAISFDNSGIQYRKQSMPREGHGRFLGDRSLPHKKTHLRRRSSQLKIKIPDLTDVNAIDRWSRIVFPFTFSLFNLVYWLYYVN
Sequence of α5β3γ2 GABAA R (P18507 40-475): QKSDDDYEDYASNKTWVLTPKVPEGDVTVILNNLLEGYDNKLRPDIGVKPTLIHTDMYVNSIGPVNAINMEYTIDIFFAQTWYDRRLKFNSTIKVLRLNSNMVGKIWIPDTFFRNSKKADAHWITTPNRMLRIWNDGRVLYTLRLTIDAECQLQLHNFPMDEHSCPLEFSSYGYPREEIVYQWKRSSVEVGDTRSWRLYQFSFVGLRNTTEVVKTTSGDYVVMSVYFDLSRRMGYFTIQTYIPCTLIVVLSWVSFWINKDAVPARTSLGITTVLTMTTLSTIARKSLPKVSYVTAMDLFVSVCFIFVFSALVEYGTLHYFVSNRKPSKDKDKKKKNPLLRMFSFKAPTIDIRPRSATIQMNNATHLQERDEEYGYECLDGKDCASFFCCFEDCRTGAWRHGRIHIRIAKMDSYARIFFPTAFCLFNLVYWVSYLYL
T2 sequence (P31644 32-462): as the sequence (P31644 32-462) above
T2 sequence (P47870 25-512 partner limits assumed): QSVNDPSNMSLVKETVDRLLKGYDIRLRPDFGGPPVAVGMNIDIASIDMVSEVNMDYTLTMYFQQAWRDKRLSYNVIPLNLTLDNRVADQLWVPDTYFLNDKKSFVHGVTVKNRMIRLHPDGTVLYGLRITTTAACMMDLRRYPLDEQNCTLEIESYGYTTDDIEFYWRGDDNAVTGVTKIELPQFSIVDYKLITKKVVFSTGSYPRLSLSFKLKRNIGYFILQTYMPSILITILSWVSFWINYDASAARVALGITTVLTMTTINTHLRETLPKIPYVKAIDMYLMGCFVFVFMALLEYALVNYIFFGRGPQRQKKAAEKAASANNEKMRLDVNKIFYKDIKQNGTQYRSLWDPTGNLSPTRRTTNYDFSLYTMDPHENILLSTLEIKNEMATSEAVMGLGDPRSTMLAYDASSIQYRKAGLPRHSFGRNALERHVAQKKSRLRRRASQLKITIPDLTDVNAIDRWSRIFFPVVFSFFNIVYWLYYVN
T2 sequence (P18507 40-475): as the sequence (P18507 40-475) above

Compound | activation at 0.1 µM (GABAA R (α5β2γ2); [1]) | Ki (α5β3γ2 GABAA R) | further results
CCOC(=O)c1ncn2c1Cn1c(C)nnc1-c1cc(OC)ccc1-2 [ethyl 3-methoxy-7-methyl-9H-benzo[f]imidazo[1,5-a][1,2,4]tri] |  |  | Ro 15-4513 binding in hippocampus (GABAA α5 receptor): reduced Ro 15-4513 binding in hippocampus; Ro 15-4513 levels/binding in cerebellum (GABAA α5 receptor): without affecting cerebellum levels of Ro 15-4513; GABAA α5 receptor occupancy (GABAA α5 receptor; 10 mg/kg): > 90%; memory performance relative to vehicle control (aged-impaired (AI) rats; 3 mg/kg): significantly improved memory performance; memory performance relative to vehicle control (aged-impaired (AI) rats; 10 mg/kg): significantly improved memory performance
CCOC(=O)c1ncn2c1Cn1c(C)nnc1-c1cc(OC)ccc1-2 |  |  | Ro 15-4513 binding in hippocampus (GABAA α5 receptor): blocked the binding of Ro154513 in the hippocampus; Ro 15-4513 levels/binding in cerebellum (GABAA α5 receptor): did not affect binding of Ro15413 in the cerebellum
CCOC(=O)c1ncn2c1CN(C)C(=O)c1cc(N=[N+]=[N-])ccc1-2 [Ro 15-4513] |  |  | level of Ro 15-4513 in cerebellum (GABAA α5 receptor; tracer 1 μg/kg, after vehicle): 0.36 ± 0.02 ng/g; level of Ro 15-4513 in hippocampus (GABAA α5 receptor; tracer 1 μg/kg, after vehicle): 1.93 ± 0.05 ng/g; levels of Ro 15-4513 in hippocampus compared with cerebellum (GABAA α5 receptor; tracer 1 μg/kg, after vehicle): > 5 fold
COc1ccc2c(c1)-c1nn(C)cc1Cc1c(-c3noc([C@@H]4CCOC4)n3)ncn1-2 [Compound 256] | 5 to 20% | < 0.1 µM | 
COc1ccc2c(c1)-c1[nH]ncc1Cc1c(C#Cc3ccccn3)ncn1-2 [Compound 90] |  |  | activation at 0.1 µM (GABAA R (α5β2γ2); [2]): 20 to 50%; Ki (α5β3γ2 GABAA R; [3]): < 0.1 µM
COCc1coc(-c2ncn3c2Cc2cn(C)nc2-c2cc(OC)ccc2-3)n1 [Compound 269] | 5 to 20% | < 0.1 µM | 
CCn1cc2c(n1)-c1cc(Cl)ccc1-n1cnc(-c3noc(C4COCCO4)n3)c1C2 (stereo not drawn) [Compound 195] | 5 to 20% | < 0.1 µM | 
Cn1cc2c(n1)-c1cc(Cl)ccc1-n1cnc(-c3noc(COCC(F)(F)F)n3)c1C2 [Compound 217] | 20 to 50% | < 0.1 µM | 
Cn1cc2c(n1)-c1cc(Cl)ccc1-n1cnc(-c3nc([C@@H]4CCOC4)no3)c1C2 [Compound 261] | 5 to 20% | < 0.1 µM | 
COCc1nc(-c2ncn3c2Cc2cn(C)nc2-c2cc(OC)ccc2-3)no1 [Compound 153] |  |  | activation at 0.1 µM (GABAA R (α5β2γ2); [2]): 20 to 50%; Ki (α5β3γ2 GABAA R; [3]): < 0.1 µM
COc1ccc2c(c1)-c1nn(C)cc1Cc1c(-c3nc(C)no3)ncn1-2 [Compound 20] | 5 to 20% | < 0.1 µM | 
FC(F)(F)c1noc(-c2ncn3c2Cc2cn(CC4CCOC4)nc2-c2cc(Cl)ccc2-3)n1 (stereo not drawn) [Compound 200] |  |  | activation at 0.1 µM (GABAA R (α5β2γ2); [2]): 20 to 50%; Ki (α5β3γ2 GABAA R; [3]): < 0.1 µM
CC(C)n1cc2c(n1)-c1cc(Cl)ccc1-n1cnc(-c3nc(C4CC4)no3)c1C2 [Compound 154] | 5 to 20% | < 0.1 µM | 
Cn1cc2c(n1)-c1cc(Cl)ccc1-n1cnc(-c3noc(C4(F)CC4)n3)c1C2 [Compound 218] | 20 to 50% | < 0.1 µM | 
COc1ccc2c(c1)-c1[nH]ncc1Cc1c(C#Cc3cccnc3)ncn1-2 [Compound 91] | 5 to 20% | < 0.1 µM | 
Cn1cc2c(n1)-c1cc(Cl)ccc1-n1cnc(-c3nc(C(F)(F)F)no3)c1C2 [Compound 122] | 5 to 20% | < 0.1 µM | 
COc1ccc2c(c1)-c1nn(C(C)C)cc1Cc1c(-c3noc(C(C)C)n3)ncn1-2 [Compound 114] | 20 to 50% | < 0.1 µM | 

Compound | activation at 0.1 µM (GABAA R (α5β2γ2); [1]) | Ki (α5β3γ2 GABAA R) | further results
CCn1cc2c(n1)-c1cc(Cl)ccc1-n1cnc(-c3noc(C(C)C)n3)c1C2 [Compound 175] |  |  | activation at 0.1 µM (GABAA R (α5β2γ2); [2]): 20 to 50%; Ki (α5β3γ2 GABAA R; [3]): < 0.1 µM
CCn1cc2c(n1)-c1cc(OC)ccc1-n1cnc(-c3noc(COCC(F)(F)F)n3)c1C2 [Compound 254] | 20 to 50% | < 0.1 µM | 
COc1ccc2c(c1)-c1nn(CC3CCCO3)cc1Cc1c(-c3noc(COC(C)C)n3)ncn1-2 (stereo not drawn) [Compound 301] | 20 to 50% | < 0.1 µM | 
COc1ccc2c(c1)-c1[nH]ncc1Cc1c(-c3nc(C(C)(C)C)no3)ncn1-2 [Compound 11] | 5 to 20% | < 0.1 µM | 
COc1ccc2c(c1)-c1nn(C)cc1Cc1c(-c3nc(C4COC4)no3)ncn1-2 [Compound 239] | 20 to 50% | < 0.1 µM | 
COc1ccc2c(c1)-c1c(cnn1CC1CCOC1)Cc1c(-c3nc(C4CC4)no3)ncn1-2 (stereo not drawn) [Compound 249] | 5 to 20% | < 0.1 µM | 
COc1ccc2c(c1)-c1nn(CC3CCCO3)cc1Cc1c(-c3nc(C(C)C)no3)ncn1-2 (stereo not drawn) [Compound 231] | 5 to 20% | < 0.1 µM | 
CC(C)n1cc2c(n1)-c1cc(Cl)ccc1-n1cnc(-c3noc(C4CC4)n3)c1C2 [Compound 149] | 20 to 50% | < 0.1 µM | 
COc1ccc2c(c1)-c1c(cnn1C)Cc1c(-c3noc(C4(F)CC4)n3)ncn1-2 [Compound 206] | 20 to 50% | < 0.1 µM | 
Cn1cc2c(n1)-c1cc(Cl)ccc1-n1cnc(-c3noc(COC4CCCC4)n3)c1C2 [Compound 211] | 20 to 50% | < 0.1 µM | 
COCCn1cc2c(n1)-c1cc(Cl)ccc1-n1cnc(-c3nc(C4CC4)no3)c1C2 [Compound 128] | 5 to 20% | < 0.1 µM | 
COc1ccc2c(c1)-c1c(cnn1C)Cc1c(-c3noc(COCC(F)(F)F)n3)ncn1-2 [Compound 184] |  |  | activation at 0.1 µM (GABAA R (α5β2γ2); [2]): > 50%; Ki (α5β3γ2 GABAA R; [3]): < 0.1 µM
CC(C)(C)c1noc(-c2ncn3c2Cc2cn[nH]c2-c2cc(Cl)ccc2-3)n1 [Compound 35] | 20 to 50% | < 0.1 µM | 
CCn1cc2c(n1)-c1cc(OC)ccc1-n1cnc(-c3noc(C(F)(F)F)n3)c1C2 [Compound 158] |  |  | activation at 0.1 µM (GABAA R (α5β2γ2); [2]): 5 to 20%; Ki (α5β3γ2 GABAA R; [3]): < 0.1 µM
FC(F)(F)c1noc(-c2ncn3c2Cc2cn[nH]c2-c2cc(Cl)ccc2-3)n1 [Compound 106] | 20 to 50% | < 0.1 µM | 
Clc1ccc2c(c1)-c1[nH]ncc1Cc1c(C#Cc3cccnc3)ncn1-2 [Compound 64] | > 50% | < 0.1 µM | 
COc1ccc2c(c1)-c1nn(C)cc1Cc1c(-c3nc(C(C)(C)C)no3)ncn1-2 [Compound 118] | 20 to 50% | < 0.1 µM | 
